Patent publication US8697747B2, “Enhancing coagulation or reducing fibrinolysis” (THe UAB Research Foundation, priority 2009, dated 2014)

What was measured:
Type in all cases: biochemical, human
[1] = system: factor IX deficient plasma; assay: Thrombelastography, factor IX deficient plasma; details: 100 mmol CORM-2 vs control; FIX deficient plasma, 5 individuals
Protocol: Plasma deficient (<1% normal activity) in factor VIII (FVIII; 11 individuals), factor IX (FIX; 5 individuals), or factor VII (FVII; 4 individuals) was obtained from anonymous donors (George King Bio-Medical, Overland Park, Kans.) and was anticoagulated with sodium citrate. The final volume for all subsequently described plasma sample mixtures was […]. Sample composition consisted of […] of plasma, […] of tissue factor (0.1% final concentration in 0.9% NaCl; Diagnostica Stago, Asnieres, France), 3.6 mL of dimethyl sulfoxide (DMSO) or DMSO with CORM-2 ([…]; Sigma-Aldrich, St. Louis, Mo.), and 20 mL of […] CaCl2. […] (Motterlini et al. 2005). While CORM-2 decays slowly in DMSO, DMSO was added to the dry compound just prior to placement into the plasma mixture.
Plasma sample mixtures were placed in a disposable cup in a computer-controlled THROMBELASTOGRAPH® hemostasis system (Model 5000; Haemoscope Corp., Niles, Ill.), with addition of CaCl2 as the last step to initiate clotting. Data were collected until clot strength stabilized (maximum amplitude).
Statistical analyses. […] A paired student's t-test was used to analyze the effects of CORM-2 exposure in FVIII deficient individuals. The results of the FIX and FVII deficient groups were presented but not statistically analyzed secondary to the small number of individuals in each cohort. […] Statistical analyses and graphical representation of the data were generated with commercially available software (SigmaPlot 11.0; Systat Software Inc., San Jose, Calif.; CorelDRAW 12.0; Corel Corp., Ottawa, Ontario, Canada). A P value of less than 0.05 was considered significant.

[2] = system: TAFI deficient plasma; assay: CLSM thrombelastography with tPA, TAFI deficient plasma; details: 100 μM CORM-2, tPA 100 IU/mL, median, n=8
Protocol: (§1) Pooled normal plasma (George King Bio-Medical, Overland Park, Kans.) anticoagulated with sodium citrate was utilized for experimentation. […] Factor XIII (FXIII) deficient plasma anticoagulated with sodium citrate was also obtained from the same vendor.
(§2) Plasma Sample Composition. The final volume for all subsequently described plasma sample mixtures was 359.4 μL. Sample composition consisted of 316 μL of plasma; 10 μL of tissue factor (0.1% final concentration in 0.9% NaCl; Diagnostica Stago, Asnieres, France), 3.6 μL of dimethyl sulfoxide (DMSO) or DMSO with CORM-2 (Sigma-Aldrich, St. Louis, Mo.) or DMSO with inactivated CORM-2 (iCORM-2), 10 μL of tissue-type plasminogen activator (tPA, 580 U/μg, Genentech, Inc., San Francisco, Calif.) diluted with 10 mM potassium phosphate buffer (pH 7.4) for a final activity of 100 IU/mL, and 20 μL of 200 mM CaCl2. […] This concentration of CORM-2 was chosen because the concentration of CO released would be expected to be in the mid to lower ranges used in previously reported ex vivo, in vitro, and cell-based experiments (Motterlini et al. 2002; Megias et al. 2007; Chlopicki et al. 2006; Dong et al. 2008). […] (Motterlini et al. 2005). While CORM-2 decays slowly in DMSO, DMSO was added to the dry compound just prior to placement into the plasma mixture. The specific series of experiments are subsequently presented.
(§3) Assessment of the Effects of CORM-2 on CLSM Parameters in FXIII, PAI-1, TAFI and α2-antiplasmin Deficient Plasmas. These experiments were performed to elucidate the roles played by antifibrinolytic enzymes during CORM-2 mediated modulation of fibrinolysis. Samples of the various deficient plasmas were exposed to 0 or 100 μM of CORM-2 (n=8 per condition). Samples underwent CLSM analyses as subsequently described.
(§4) Clot Lifespan Model Analyses. As described in Example 1, plasma sample mixtures were placed in a disposable cup in a computer-controlled THROMBELASTOGRAPH® hemostasis system (Model 5000, Haemoscope Corp., Niles, Ill.), with addition of CaCl2 as the last step to initiate clotting. Data were collected until clot lysis time occurred. […] As this model involves complete fibrinolysis, TTG is equivalent to ACL, so ACL was not presented as it provides no additional information.
(§5) Statistical Analyses. Data are presented as median (1st, 3rd quartiles). […] Nonlinear and linear analyses and curve fitting of the various CORM-2 concentrations effects on CLSM variables were performed with commercially available software (SigmaPlot 11.0, Systat Software, Inc., San Jose, Calif.). Analyses of the effects of CORM-2 and iCORM-2 on CLSM variables in normal plasma were conducted with Kruskal-Wallis one way analysis of variance on ranks, whereas Mann-Whitney rank sum tests were used to assess the effects of CORM-2 on CLSM variables in the various immunodepleted/congenitally deficient plasma types (SigmaStat 3.1, Systat Software, Inc., San Jose, Calif.). Graphical representation of the data was generated with commercially available software (SigmaPlot 11.0, Systat Software, Inc., San Jose, Calif.; CorelDRAW 12.0, Corel Corporation, Ottawa, Ontario, Canada; Origin 7.5, OriginLab Corp., Northampton, Mass.). A P value of <0.05 was considered significant.

[3] = system: FXIII deficient plasma; assay: CLSM thrombelastography with tPA, FXIII deficient plasma; details: 100 μM CORM-2, tPA 100 IU/mL, median, n=8
Protocol: as §1, §2, §3, §4, §5

[C-]#[O+].[C-]#[O+].[C-]#[O+].[C-]#[O+].[C-]#[O+].[C-]#[O+].[Cl][Ru][Cl].[Cl][Ru][Cl] [CORM-2, tricarbonyldichlororuthenium (II) dimer]
effect on MRTG (speed of clot formation) [1]: four of five individuals had an increase in the speed of clot formation | effect on TMRTG [1]: decreased the TMRTG value of all five individual plasma samples tested | effect on TTG [1]: All individual plasma samples demonstrated an increase in TTG | CGT (clot growth time) [2]: 410 s | CLS (clot lifespan) [2]: 370 s | CLT (clot lysis time) [2]: 932 s | MRL (maximum rate of lysis) [2]: −1.4 -dynes/cm^2/sec | MRTG (maximum rate of thrombus generation) [2]: 6.1 dynes/cm^2/sec | TMRL (time to maximum rate of lysis) [2]: 612 s | TMRTG (time to maximum rate of thrombus generation) [2]: 175 s | TTG (total thrombus generation) [2]: 142 dynes/cm^2 | CGT (clot growth time) [3]: 820 s | CLS (clot lifespan) [3]: 2258 s | CLT (clot lysis time) [3]: 1460 s | MRL (maximum rate of lysis) [3]: −1.0 -dynes/cm^2/sec | MRTG (maximum rate of thrombus generation) [3]: 5.8 dynes/cm^2/sec | TMRL (time to maximum rate of lysis) [3]: 855 s | TMRTG (time to maximum rate of thrombus generation) [3]: 195 s | TTG (total thrombus generation) [3]: 160 dynes/cm^2
